This note sets out measurements from ChEMBL document CHEMBL5634137, “2,4-Diacetylphloroglucinol (DAPG) derivatives rapidly eradicate methicillin-resistant staphylococcus aureus without resistance development by disrupting membrane” (Eur J Med Chem, 2023).

≈ marks a conversion by molar mass, not a printed value. Calls of active or inactive are those of the source. Where only a bound is given, the exact number is not on record here.

Data set [1] deals with Staphylococcus aureus. As to the kind of experiment: Antibacterial activity against Methicillin-resistant Staphylococcus aureus USA300 assessed as inhibition of bacterial growth incubated for 24 hrs by broth dilution method. It is filed as functional. A general note: Dilution methods test growth across graded concentrations, often in twofold steps.
The subject of data set [2] is Staphylococcus aureus. As to the kind of experiment: Antibacterial activity against Methicillin-resistant Staphylococcus aureus USA300 infected in mouse skin infection model assessed as reduction in number of bacteria at 10 mg/kg, sc administered every 12 hrs for 3 days. The format is functional. The following applies: time 3.0 day.
A short description of data set [3]: Cytotoxicity against human L02 cells assessed as survival rate incubated for 24 hrs by MTT assay. The format is toxicity, cell-based. Details: concentration or dose not given beside the values. The following applies: read-out: Survival. On the technique in general: Tetrazolium dyes change colour on reduction, which living cells bring about.
A further data set concerns Escherichia coli. As to the kind of experiment: Antibacterial activity against Escherichia coli ATCC 11775 assessed as inhibition of bacterial growth incubated for 24 hrs by broth dilution method. It is filed as functional.
The subject of the next data set is Pseudomonas aeruginosa. As to the kind of experiment: Antibacterial activity against Pseudomonas aeruginosa […] assessed as inhibition of bacterial growth incubated for 24 hrs by broth dilution method. It is filed as functional.
Data set [4] deals with Staphylococcus aureus. As to the kind of experiment: Selectivity index, ratio of MBC for bactericidal against methicillin-resistant Staphylococcus aureus ATCC 4330 to MIC for antibacterial activity against methicillin-resistant Staphylococcus aureus ATCC 4330. It is filed as functional.
The next data set deals with Klebsiella pneumoniae. As to the kind of experiment: Antibacterial activity against Klebsiella pneumoniae […] assessed as inhibition of bacterial growth incubated for 24 hrs by broth dilution method. It is filed as functional.
Data set [5] has as its system Staphylococcus aureus. As to the kind of experiment: Bactericidal activity against methicillin-resistant Staphylococcus aureus ATCC 3392 assessed as inhibition of bacterial growth incubated for 24 hrs by broth dilution method. It is filed as functional.
The subject of data set [6] is Staphylococcus aureus. As to the kind of experiment: Selectivity index, ratio of MBC for bactericidal against methicillin-resistant Staphylococcus aureus ATCC 3392 to MIC for antibacterial activity against methicillin-resistant Staphylococcus aureus ATCC 3392. The format is functional.
Data set [7] deals with Staphylococcus aureus. As to the kind of experiment: Antibacterial activity against methicillin-resistant Staphylococcus aureus ATCC 4330 assessed as inhibition of bacterial growth incubated for 24 hrs by broth dilution method. It is filed as functional.
Data set [8] in a line: Cytotoxicity against mouse RAW264.7 cells assessed as survival rate incubated for 24 hrs by MTT assay. Particulars: read-out: Survival. Details: concentration or dose not given beside the values. The format is toxicity, cell-based.
Data set [9] concerns Staphylococcus aureus. As to the kind of experiment: Antibacterial activity against methicillin-resistant Staphylococcus aureus ATCC 3392 assessed as inhibition of bacterial growth incubated for 24 hrs by broth dilution method. The format is functional.
The subject of data set [10] is Staphylococcus aureus. As to the kind of experiment: Bactericidal against methicillin-resistant Staphylococcus aureus ATCC 4330 assessed as inhibition of bacterial growth incubated for 24 hrs by broth dilution method. It is filed as functional.

As to `Cc1onc(-c2ccccc2)c1C(=O)N[C@@H]1C(=O)N2[C@@H]1SC(C)(C)[C@@H]2C(=O)O` [OXACILLIN], the MIC (commonly the lowest concentration that inhibits growth of the organism) with Staphylococcus aureus [1] was found to be 16 µg/mL (≈ 39.9 µM). In the data set on Staphylococcus aureus [2], the outcome was inactive.
Turning to `CCCCC(=O)c1c(O)cc(O)c(C(=O)C2CCCCC2)c1O`, the values for the viability at 24 h in [3] and in [8] were 75% and 76%, respectively. Moreover, the MIC was more than 64 µg/mL with Escherichia coli; 0.5 µg/mL (≈ 1.56 µM) with Staphylococcus aureus [1]; more than 64 µg/mL in the data set with Pseudomonas aeruginosa; more than 64 µg/mL with Klebsiella pneumoniae; 0.5 µg/mL (≈ 1.56 µM) with Staphylococcus aureus [7]; 0.5 µg/mL (≈ 1.56 µM) in the data set on Staphylococcus aureus [9]. The “Selectivity Index” value with Staphylococcus aureus [4] amounted to 2; in the data set with Staphylococcus aureus [6], 8. Also, the MBC – broadly, the smallest concentration meeting the test's criterion for killing – in the data set with Staphylococcus aureus [5] was 4 µg/mL (≈ 12.5 µM); in the data set with Staphylococcus aureus [10] it was 1 µg/mL (≈ 3.12 µM).
On to `CCCCC(=O)c1c(O)cc(O)c(C(=O)C(C)C)c1O`, for which the viability at 24 h in [3] turned out to be 75%; in data set [8], 76%. Besides, the MIC in the data set on Escherichia coli was more than 64 µg/mL; in the data set with Staphylococcus aureus [1] it was 1 µg/mL (≈ 3.57 µM); in the data set with Pseudomonas aeruginosa, more than 64 µg/mL; in the data set with Klebsiella pneumoniae it was more than 64 µg/mL; in the data set with Staphylococcus aureus [7], 2 µg/mL (≈ 7.13 µM); in the data set with Staphylococcus aureus [9] it was 2 µg/mL (≈ 7.13 µM). In addition, the “Selectivity Index” value in the data set with Staphylococcus aureus [4] and in the data set with Staphylococcus aureus [6] was 4 each time. Besides, the MBC in the data set on Staphylococcus aureus [5] and with Staphylococcus aureus [10] was 8 µg/mL (≈ 28.5 µM) throughout.
As for `O=C(c1c(O)cc(O)c(C(=O)C2CCCC2)c1O)C1CCCC1`, the viability at 24 h was determined as 75% in [3] and 76% in [8]. In addition, the MIC in the data set with Escherichia coli was 64 µg/mL (≈ 201 µM); in the data set with Staphylococcus aureus [1], 0.5 µg/mL (≈ 1.57 µM); with Pseudomonas aeruginosa, more than 64 µg/mL; with Klebsiella pneumoniae, more than 64 µg/mL; with Staphylococcus aureus [7] it was 1 µg/mL (≈ 3.14 µM); in the data set on Staphylococcus aureus [9] it was 1 µg/mL (≈ 3.14 µM). Moreover, the “Selectivity Index” value with Staphylococcus aureus [4] and with Staphylococcus aureus [6] was 4 throughout. The MBC in the data set with Staphylococcus aureus [5] and in the data set on Staphylococcus aureus [10] was 4 µg/mL (≈ 12.6 µM) throughout.
For `CCCCC(=O)c1c(O)cc(O)c(C(=O)CC(C)(C)C)c1O`, the values for the viability at 24 h in data set [3] and in data set [8] were 75% and 76%, respectively. Moreover, the MIC is more than 64 µg/mL in the data set on Escherichia coli; 0.5 µg/mL (≈ 1.62 µM) with Staphylococcus aureus [1]; more than 64 µg/mL in the data set on Pseudomonas aeruginosa; more than 64 µg/mL with Klebsiella pneumoniae; 0.5 µg/mL (≈ 1.62 µM) with Staphylococcus aureus [7]; 0.5 µg/mL (≈ 1.62 µM) with Staphylococcus aureus [9]. Besides, the “Selectivity Index” value with Staphylococcus aureus [4] is given as 8. Further, the MBC in the data set with Staphylococcus aureus [5] and with Staphylococcus aureus [10] was 4 µg/mL (≈ 13 µM) in each case.
`CN[C@H](CC(C)C)C(=O)N[C@H]1C(=O)N[C@@H](CC(N)=O)C(=O)N[C@H]2C(=O)N[C@H]3C(=O)N[C@H](C(=O)N[C@H](C(=O)O)c4cc(O)cc(O)c4-c4cc3ccc4O)[C@H](O)c3ccc(c(Cl)c3)Oc3cc2cc(c3O[C@@H]2O[C@H](CO)[C@@H](O)[C@H](O)[C@H]2O[C@H]2C[C@](C)(N)[C@H](O)[C@H](C)O2)Oc2ccc(cc2Cl)[C@H]1O` [VANCOMYCIN]: the MIC in the data set on Escherichia coli, with Pseudomonas aeruginosa and with Klebsiella pneumoniae was more than 64 µg/mL each time. Moreover, the outcome in the data set on Staphylococcus aureus [2] was inactive.
Take `CC(=O)c1c(O)cc(O)c(C(C)=O)c1O`: the MIC is more than 64 µg/mL in the data set with Escherichia coli; 8 µg/mL (≈ 38.1 µM) in the data set on Staphylococcus aureus [1]; more than 64 µg/mL with Pseudomonas aeruginosa; more than 64 µg/mL in the data set with Klebsiella pneumoniae; 8 µg/mL (≈ 38.1 µM) with Staphylococcus aureus [7]; 4 µg/mL (≈ 19 µM) in the data set on Staphylococcus aureus [9]. Further, the “Selectivity Index” value in the data set on Staphylococcus aureus [4] is recorded as 4; in the data set on Staphylococcus aureus [6], 16. The MBC came out at 64 µg/mL (≈ 304 µM) in the data set on Staphylococcus aureus [5] and 32 µg/mL (≈ 152 µM) with Staphylococcus aureus [10].
Regarding `CCCCC(=O)c1c(O)cc(O)c(C(=O)C(C)CC)c1O` (configuration not stated), the viability at 24 h in [3] was found to be 75%; in [8] it was 76%. For the same molecule, the MIC was more than 64 µg/mL with Escherichia coli; 1 µg/mL (≈ 3.4 µM) in the data set on Staphylococcus aureus [1]; more than 64 µg/mL with Pseudomonas aeruginosa; more than 64 µg/mL in the data set with Klebsiella pneumoniae; 1 µg/mL (≈ 3.4 µM) in the data set with Staphylococcus aureus [7]; 1 µg/mL (≈ 3.4 µM) in the data set on Staphylococcus aureus [9]. Further, the “Selectivity Index” value was 4 with Staphylococcus aureus [4] and 8 with Staphylococcus aureus [6]. The results for the MBC in the data set on Staphylococcus aureus [5] and with Staphylococcus aureus [10] were 8 µg/mL (≈ 27.2 µM) and 4 µg/mL (≈ 13.6 µM), respectively.
In the case of `CCCCC(=O)c1c(O)cc(O)c(C(=O)CCC(C)C)c1O`, the viability at 24 h is 75% in data set [3] and 76% in data set [8]. The MIC was more than 64 µg/mL in the data set with Escherichia coli; 0.5 µg/mL (≈ 1.62 µM) with Staphylococcus aureus [1]; more than 64 µg/mL in the data set with Pseudomonas aeruginosa; more than 64 µg/mL in the data set with Klebsiella pneumoniae; 0.5 µg/mL (≈ 1.62 µM) with Staphylococcus aureus [7]; 0.5 µg/mL (≈ 1.62 µM) with Staphylococcus aureus [9]. In addition, the “Selectivity Index” value in the data set on Staphylococcus aureus [4] is listed as 4; in the data set with Staphylococcus aureus [6], 16. Also, the values for the MBC with Staphylococcus aureus [5] and in the data set with Staphylococcus aureus [10] were 8 µg/mL (≈ 25.9 µM) and 2 µg/mL (≈ 6.49 µM), respectively.
In the case of `CC(C)CCC(=O)c1c(O)cc(O)c(C(=O)CCC(C)C)c1O`, the MIC with Escherichia coli is more than 64 µg/mL; in the data set on Staphylococcus aureus [1], 0.5 µg/mL (≈ 1.55 µM); in the data set on Pseudomonas aeruginosa it was more than 64 µg/mL; in the data set with Klebsiella pneumoniae, more than 64 µg/mL; in the data set on Staphylococcus aureus [7] it was 0.5 µg/mL (≈ 1.55 µM); in the data set with Staphylococcus aureus [9] it was 0.5 µg/mL (≈ 1.55 µM). Also, the “Selectivity Index” value with Staphylococcus aureus [4] and in the data set on Staphylococcus aureus [6] was 4 throughout. Also, the MBC in the data set on Staphylococcus aureus [5] and in the data set on Staphylococcus aureus [10] was 2 µg/mL (≈ 6.2 µM) each time.
Consider `CCCCCC(=O)c1c(O)cc(O)c(C(=O)CCCCC)c1O`, for which the MIC with Escherichia coli is more than 64 µg/mL; in the data set on Staphylococcus aureus [1] it was 0.5 µg/mL (≈ 1.55 µM); in the data set on Pseudomonas aeruginosa it was more than 64 µg/mL; with Klebsiella pneumoniae it was more than 64 µg/mL; in the data set with Staphylococcus aureus [7], 0.5 µg/mL (≈ 1.55 µM); in the data set on Staphylococcus aureus [9], 0.5 µg/mL (≈ 1.55 µM). For the same molecule, the “Selectivity Index” value in the data set on Staphylococcus aureus [4] and in the data set with Staphylococcus aureus [6] was 4 in each case. The MBC in the data set with Staphylococcus aureus [5] and in the data set with Staphylococcus aureus [10] was 2 µg/mL (≈ 6.2 µM) throughout.
